Laboratory results published in patent US20120077737A1, “HEPATITIS C INHIBITOR COMPOUNDS” (priority 2009, published 2012).
Where two headings read alike, the source gives them in different places.

Tests used:
[1] = tested on: HCVPV1a subgenomic replicon (wild type 1a); experiment: HCV replicon RNA replication assay, wild type 1a; format: cell-based, HCV genotype 1a (strain H77), Huh-7 cells; conditions: Hepatitis C virus, read-out: WT 1a Ec50
[2] = tested on: HCV genotype 1a subgenomic replicon with NS3 resistance mutation D168V; experiment: HCV replicon RNA replication assay, D168V 1a; format: cell-based, HCV genotype 1a (strain H77), Huh-7 cells; conditions: Hepatitis C virus, read-out: D168V 1a Ec50 (nM)
[3] = tested on: HCVPV1b subgenomic replicon (wild type 1b); experiment: HCV replicon RNA replication assay, wild type 1b; format: cell-based, HCV genotype 1b (Con-1), Huh-7 cells; conditions: Hepatitis C virus, read-out: WT 1b Ec50
[4] = tested on: HCV genotype 1b subgenomic replicon with NS3 resistance mutation D168V; experiment: HCV replicon RNA replication assay, D168V 1b; format: cell-based, HCV genotype 1b (Con-1), Huh-7 cells; conditions: Hepatitis C virus, read-out: D168V 1b Ec50 (nM)
[5] = tested on: HCV genotype 1a subgenomic replicon with NS3 resistance mutation R155K; experiment: HCV replicon RNA replication assay, R155K 1a; format: cell-based, HCV genotype 1a (strain H77), Huh-7 cells; conditions: Hepatitis C virus, read-out: R155K 1a Ec50 (nM)
[6] = Table 1, luciferase replicon, Huh-7, 72 h
[7] = Table 2, clinical comparators, wildtype genotype 1a
[8] = Table 2, clinical comparators, wildtype genotype 1b

SMILES	EC50 [1, 6] [nM]	EC50 ([2]; Huh-7, 72 h) [nM]	EC50 [3, 6] [nM]	EC50 ([4]; Huh-7, 72 h) [nM]	EC50 ([5]; Huh-7, 72 h) [nM]	EC50 [1, 7] [nM]	EC50 [2] [nM]	EC50 [3, 8] [nM]	EC50 [4] [nM]	EC50 [5] [nM]
COCc1ccc(C(=O)N[C@H]2CCCCC/C=C\[C@@H]3C[C@@]3(C(=O)NS(=O)(=O)C3CC3)NC(=O)[C@@H]3C[C@@H](Oc4cc(OC(C)C)nc5c(C)c(OC)ccc45)CN3C2=O)s1 [Compound 1009, (2R,6S,12Z,13aS,14aR,16aS)-N-(cyclopropylsulfonyl)-2-{[7-methoxy-8-methyl-2-(propan-2-yloxy)quinolin-4-yl]oxy}-6-({[5-(methoxymethyl)thiophen-2-yl]carbonyl}amino)-5,16-dioxo-1,2,3,6,7,8,9,10,11,13a,14,15,16,16a-tetradecahydrocyclopropa[e]pyrrolo[1,2-a][1,4]diazacyclopentadecine-14a(5H)-carboxamide]	0.43	7.2	0.46	0.24	3.6	–	–	–	–	–
COc1c(F)ccc2c(O[C@@H]3C[C@H]4C(=O)N[C@]5(C(=O)NS(=O)(=O)C6(C)CC6)C[C@H]5/C=C\CCCCC[C@H](NC(=O)c5ccn(CC(F)(F)F)n5)C(=O)N4C3)cc(OC(C)C)nc12 [Compound 1026, (2R,6S,12Z,13aS,14aR,16aS)-2-{[7-fluoro-8-methoxy-2-(propan-2-yloxy)quinolin-4-yl]oxy}-N-[(1-methylcyclopropyl)sulfonyl]-5,16-dioxo-6-({[1-(2,2,2-trifluoroethyl)-1H-pyrazol-3-yl]carbonyl}amino)-1,2,3,6,7,8,9,10,11,13a,14,15,16,16a-tetradecahydrocyclopropa[e]pyrrolo[1,2-a][1,4]diazacyclopentadecine-14a(5H)-carboxamide]	0.52	0.7	0.31	0.34	1.6	–	–	–	–	–
Cc1c(F)ccc2c(O[C@@H]3C[C@H]4C(=O)N[C@]5(C(=O)NS(=O)(=O)C6(C)CC6)C[C@H]5/C=C\CCCCC[C@H](NC(=O)c5ccn(C)n5)C(=O)N4C3)cc(OC(C)C)nc12 [Compound 1008, (2R,6S,12Z,13aS,14aR,16aS)-2-{[7-fluoro-8-methyl-2-(propan-2-yloxy)quinolin-4-yl]oxy}-N-[(1-methylcyclopropyl)sulfonyl]-6-{[(1-methyl-1H-pyrazol-3-yl)carbonyl]amino}-5,16-dioxo-1,2,3,6,7,8,9,10,11,13a,14,15,16,16a-tetradecahydrocyclopropa[e]pyrrolo[1,2-a][1,4]diazacyclopentadecine-14a(5H)-carboxamide]	0.24	6.6	0.35	0.2	1.9	–	–	–	–	–
COc1ccc2c(O[C@@H]3C[C@H]4C(=O)N[C@]5(C(=O)NS(=O)(=O)C6(C)CC6)C[C@H]5/C=C\CCCCC[C@H](NC(=O)c5ccn(C)n5)C(=O)N4C3)cc(OC(C)C)nc2c1C [Compound 1007, (2R,6S,12Z,13aS,14aR,16aS)-2-{[7-methoxy-8-methyl-2-(propan-2-yloxy)quinolin-4-yl]oxy}-N-[(1-methylcyclopropyl)sulfonyl]-6-{[(1-methyl-1H-pyrazol-3-yl)carbonyl]amino}-5,16-dioxo-1,2,3,6,7,8,9,10,11,13a,14,15,16,16a-tetradecahydrocyclopropa[e]pyrrolo[1,2-a][1,4]diazacyclopentadecine-14a(5H)-carboxamide]	0.25	4.5	0.2	0.18	1.7	–	–	–	–	–
COc1ccc2c(O[C@@H]3C[C@H]4C(=O)N[C@]5(C(=O)NS(=O)(=O)C6CC6)C[C@H]5/C=C\CCCCC[C@H](NC(=O)c5ccc(C(C)(C)O)s5)C(=O)N4C3)cc(OC(C)C)nc2c1C [Compound 1014, (2R,6S,12Z,13aS,14aR,16aS)-N-(cyclopropylsulfonyl)-6-({[5-(2-hydroxypropan-2-yl)thiophen-2-yl]carbonyl}amino)-2-{[7-methoxy-8-methyl-2-(propan-2-yloxy)quinolin-4-yl]oxy}-5,16-dioxo-1,2,3,6,7,8,9,10,11,13a,14,15,16,16a-tetradecahydrocyclopropa[e]pyrrolo[1,2-a][1,4]diazacyclopentadecine-14a(5H)-carboxamide]	1.2	6.3	1.2	0.82	8.5	–	–	–	–	–
COCCn1ccc(C(=O)N[C@H]2CCCCC/C=C\[C@@H]3C[C@@]3(C(=O)NS(=O)(=O)C3(C)CC3)NC(=O)[C@@H]3C[C@@H](Oc4cc(OC(C)C)nc5c(C)c(OC)ccc45)CN3C2=O)n1 [Compound 1002, (2R,6S,12Z,13aS,14aR,16aS)-6-({[1-(2-methoxyethyl)-1H-pyrazol-3-yl]carbonyl}amino)-2-{[7-methoxy-8-methyl-2-(propan-2-yloxy)quinolin-4-yl]oxy}-N-[(1-methylcyclopropyl)sulfonyl]-5,16-dioxo-1,2,3,6,7,8,9,10,11,13a,14,15,16,16a-tetradecahydrocyclopropa[e]pyrrolo[1,2-a][1,4]diazacyclopentadecine-14a(5H)-carboxamide]	0.38	2.8	0.32	0.12	1.5	–	–	–	–	–
COc1c(F)ccc2c(O[C@@H]3C[C@H]4C(=O)N[C@]5(C(=O)NS(=O)(=O)C6(C)CC6)C[C@H]5/C=C\CCCCC[C@H](NC(=O)c5ccn(C(C)C)n5)C(=O)N4C3)cc(OC(C)C)nc12 [Compound 1023, (2R,6S,12Z,13aS,14aR,16aS)-2-{[7-fluoro-8-methoxy-2-(propan-2-yloxy)quinolin-4-yl]oxy}-N-[(1-methylcyclopropyl)sulfonyl]-5,16-dioxo-6-({[1-(propan-2-yl)-1H-pyrazol-3-yl]carbonyl}amino)-1,2,3,6,7,8,9,10,11,13a,14,15,16,16a-tetradecahydrocyclopropa[e]pyrrolo[1,2-a][1,4]diazacyclopentadecine-14a(5H)-carboxamide]	0.37	0.83	0.4	0.52	3.1	–	–	–	–	–
COc1ccc2c(O[C@@H]3C[C@H]4C(=O)N[C@]5(C(=O)NS(=O)(=O)C6(C)CC6)C[C@H]5/C=C\CCCCC[C@H](NC(=O)c5ccn(CCF)n5)C(=O)N4C3)cc(OC(C)C)nc2c1C [Compound 1004, (2R,6S,12Z,13aS,14aR,16aS)-6-({[1-(2-fluoroethyl)-1H-pyrazol-3-yl]carbonyl}amino)-2-{[7-methoxy-8-methyl-2-(propan-2-yloxy)quinolin-4-yl]oxy}-N-[(1-methylcyclopropyl)sulfonyl]-5,16-dioxo-1,2,3,6,7,8,9,10,11,13a,14,15,16,16a-tetradecahydrocyclopropa[e]pyrrolo[1,2-a][1,4]diazacyclopentadecine-14a(5H)-carboxamide]	0.24	1.8	0.27	0.15	1.3	–	–	–	–	–
CC(C)(C)OC(=O)N[C@H]1CCCCC/C=C\[C@@H]2C[C@@]2(C(=O)NS(=O)(=O)C2CC2)NC(=O)[C@@H]2C[C@@H](OC(=O)N3Cc4cccc(F)c4C3)CN2C1=O [reference compound]	–	–	–	–	–	2.1	180	5.4	120	690
CNC(=O)Cn1ccc(C(=O)N[C@H]2CCCCC/C=C\[C@@H]3C[C@@]3(C(=O)NS(=O)(=O)C3CC3)NC(=O)[C@@H]3C[C@@H](Oc4cc(OC(C)C)nc5c(C)c(OC)ccc45)CN3C2=O)n1 [Compound 1018, (2R,6S,12Z,13aS,14aR,16aS)-N-(cyclopropylsulfonyl)-2-{[7-methoxy-8-methyl-2-(propan-2-yloxy)quinolin-4-yl]oxy}-6-[({1-[2-(methylamino)-2-oxoethyl]-1H-pyrazol-3-yl}carbonyl)amino]-5,16-dioxo-1,2,3,6,7,8,9,10,11,13a,14,15,16,16a-tetradecahydrocyclopropa[e]pyrrolo[1,2-a][1,4]diazacyclopentadecine-14a(5H)-carboxamide]	2.7	9.8	3.3	2.4	4.2	–	–	–	–	–
CNC(=O)Cn1ccc(C(=O)N[C@H]2CCCCC/C=C\[C@@H]3C[C@@]3(C(=O)NS(=O)(=O)C3(C)CC3)NC(=O)[C@@H]3C[C@@H](Oc4cc(OC(C)C)nc5c(C)c(OC)ccc45)CN3C2=O)n1 [Compound 1019, (2R,6S,12Z,13aS,14aR,16aS)-2-{[7-methoxy-8-methyl-2-(propan-2-yloxy)quinolin-4-yl]oxy}-6-[({1-[2-(methylamino)-2-oxoethyl]-1H-pyrazol-3-yl}carbonyl)amino]-N-[(1-methylcyclopropyl)sulfonyl]-5,16-dioxo-1,2,3,6,7,8,9,10,11,13a,14,15,16,16a-tetradecahydrocyclopropa[e]pyrrolo[1,2-a][1,4]diazacyclopentadecine-14a(5H)-carboxamide]	2	5.4	1.5	1.8	1.6	–	–	–	–	–
COc1ccc2c(O[C@@H]3C[C@H]4C(=O)N[C@@]5(C(=O)NS(=O)(=O)C6CC6)C[C@@H]5/C=C\CCCCN(C)C(=O)[C@@H]4C3)cc(-c3nc(C(C)C)cs3)nc2c1C [reference compound]	–	–	–	–	–	0.7	3500	1.2	4400	300
